This is an account of results in patent US7098211B2, “Compounds having simultaneous ability to block L-type calcium channels and to inhibit phosphodiesterase type 3 activity” (Artesian Therapeutics, Inc., priority 2002, dated 2006).

One may read the pIC50 as −log10 of the IC50, conventionally taken in molar units.

Structures are written as SMILES. pIC50: −log10 of the molar value. Where “and” joins values, the source holds several entries; their conditions need not be identical. Equal values may be shown once.

Data set [1] concerns the target T1, Human platelet cyclic AMP phosphodiesterase (PDE-3) (Homo sapiens, UniProt Q14432).
T1 construct: Human platelet cyclic AMP phosphodiesterase was prepared; from tissue; host or cells: human platelets
As to the kind of experiment: cAMP PDE-3 inhibitory activity assay. The class given is biochemical. Conditions: 10 minutes at 30° C., n=3 per concentration. On the procedure: Human platelet cyclic AMP phosphodiesterase was prepared according to the method of Alvarez et al. (Mol. Pharmacol. 1986, 29, 554). The PDE incubation medium contained 10 mM Tris-HCl buffer, pH 7.7, 10 mM MgSO4, and 1 μM […] (0.2 μCi) in a total volume of 1.0 mL. Test compounds were dissolved in dimethyl sulfoxide (DMSO) immediately prior to addition to the incubation medium, and the resulting mixture was allowed to stand for 10 minutes prior to the addition of enzyme. Following the addition of PDE, the contents were mixed and incubated for 10 minutes at 30° C. Three assays each were performed for each of five test compound concentrations, the mean of the determinations (n=3) at each concentration was plotted, and IC50 values were determined graphically.

In data set [2] the test system is paced dog model of congestive heart failure. As to the kind of experiment: Paced dog model of congestive heart failure. It is filed as in vivo. The following applies: for ventricular tachycardia: all tested dosages. The procedure:
Compound 8 was evaluated in a paced dog model of congestive heart failure. Pacing-induced heart failure in the dog produces alterations in heart physiology and molecular signaling similar to what is seen in the failing human heart, making this an appropriate model to test compounds that can potentially improve calcium homeostasis and heart failure physiology. Heart failure was induced by increasing the heart rate to 220–240 beats per minute (bpm) for a six week period. The degree of heart failure was documented by both pressure measurements and echocardiogram (changes in contractility, ejection fraction, ventricular relaxation, fractional area shortening, isovolumic relaxation time). Compound 8 or the milrinone were administered following the induction of heart failure.

Data set [3] relates to guinea pig papillary muscle. As to the kind of experiment: Contraction-relaxation in guinea pig papillary muscle. It is filed as cell-based. The following applies: FIG. 1. The procedure: Male guinea pigs (400–500 g) were killed by cervical dislocation and the hearts were quickly removed, immersed in ice-cold, and oxygenated in Kreb's solution containing 113.1 mM NaCl, 4.6 mM KCl, 2.45 mM CaCl2, 1.2 mM MgCl2, […], and 10.0 mM glucose; pH 7.4 with 95% O2–5% CO2. The ventricles were opened and papillary muscles were removed with chordae tandineae and a base of surrounding tissue intact. The tendinous ends of the muscles were ligated with silk thread, and the muscles were mounted in vertical, double-jacketed organ baths containing 10 mL of oxygenated Kreb's solution kept at 37° C. […]
Following a 45-minute equilibration period under a 1 gram tension, control contractions were elicited by stimulating the muscle using stainless steel field electrodes at a frequency of 1.0 Hz, 2.0 ms duration. […] Control contraction-relaxation cycles were recorded for 30 seconds continuously. […] A series of washout contractions was recorded following a change of solution. When the amplitude of contraction returned to that measured in control conditions, a single concentration of positive control was then tested on the tissue in the same manner as Compound 5 and milrinone.
Contraction amplitude as well as the time courses of contraction and relaxation were quantified. […]

T1 sequence (Q14432 whole entry): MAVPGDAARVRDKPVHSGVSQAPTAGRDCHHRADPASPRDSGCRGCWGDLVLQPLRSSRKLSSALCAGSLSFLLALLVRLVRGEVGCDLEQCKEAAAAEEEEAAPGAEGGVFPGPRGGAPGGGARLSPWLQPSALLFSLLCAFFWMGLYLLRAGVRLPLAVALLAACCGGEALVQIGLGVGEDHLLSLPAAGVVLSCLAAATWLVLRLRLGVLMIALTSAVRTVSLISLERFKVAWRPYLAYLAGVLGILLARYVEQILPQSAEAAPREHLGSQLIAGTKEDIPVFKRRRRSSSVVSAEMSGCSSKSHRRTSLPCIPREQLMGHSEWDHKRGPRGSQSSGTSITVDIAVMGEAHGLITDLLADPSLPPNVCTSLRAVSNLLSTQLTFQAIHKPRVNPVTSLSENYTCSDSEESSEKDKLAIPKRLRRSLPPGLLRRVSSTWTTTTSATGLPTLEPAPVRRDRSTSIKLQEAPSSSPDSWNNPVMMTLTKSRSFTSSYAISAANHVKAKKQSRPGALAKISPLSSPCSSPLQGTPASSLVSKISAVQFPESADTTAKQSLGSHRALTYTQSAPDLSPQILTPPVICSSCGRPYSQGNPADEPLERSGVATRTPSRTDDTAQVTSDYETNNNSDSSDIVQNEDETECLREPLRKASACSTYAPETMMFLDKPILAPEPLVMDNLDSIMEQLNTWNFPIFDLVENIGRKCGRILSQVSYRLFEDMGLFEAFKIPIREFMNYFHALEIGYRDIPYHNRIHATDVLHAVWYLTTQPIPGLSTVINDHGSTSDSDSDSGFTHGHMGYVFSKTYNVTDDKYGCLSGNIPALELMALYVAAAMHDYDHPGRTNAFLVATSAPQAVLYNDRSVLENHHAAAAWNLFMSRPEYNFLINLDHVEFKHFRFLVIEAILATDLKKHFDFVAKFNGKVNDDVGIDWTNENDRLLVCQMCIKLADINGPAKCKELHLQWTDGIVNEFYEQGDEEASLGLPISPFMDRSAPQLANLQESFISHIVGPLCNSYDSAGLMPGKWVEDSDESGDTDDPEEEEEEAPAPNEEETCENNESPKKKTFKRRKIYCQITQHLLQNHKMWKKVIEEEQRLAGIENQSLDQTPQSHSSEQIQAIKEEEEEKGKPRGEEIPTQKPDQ

In the case of `COC(=O)C1=C(C)NC(COCCCOc2ccc3[nH]c(=O)ccc3c2)=C(C(=O)OC)C1c1ccccc1Cl` (stereo not drawn) [Compound 7, methyl 4-(2-chlorophenyl)-5-(methoxycarbonyl)-2-methyl-6-{[3-(2-oxo(6-hydroquinolyloxy))propoxy]methyl}-1,4-dihydropyridine-3-carboxylate], in data set [1], the negative logarithm of the IC50 (pIC50) was 6.47 and 6.38.

Regarding `CCOC(=O)C1=C(COCCNC(=O)COc2ccc3[nH]c(=O)ccc3c2)NC(C)=C(C(=O)OC)C1c1ccccc1Cl` (stereo not drawn) [Compound 11, methyl 4-(2-chlorophenyl)-5-(ethoxycarbonyl)-2-methyl-6-({2-[2-(2-oxo(6-hydroquinolyloxy))acetylamino]ethoxy}methyl)-1,4-dihydropyridine-3-carboxylate], the pIC50 in data set [1] is 7.00.

As to `Cc1[nH]c(=O)c(C#N)cc1-c1ccncc1` [milrinone, reference compound], the ventricular tachycardia result in data set [2] (dogs in heart failure) is “demonstrated ventricular tachycardia”.

On to `CCOC(=O)C1=C(COCCNC(=O)CCCOc2ccc3[nH]c(=O)ccc3c2)NC(C)=C(C(=O)OC)C1c1ccccc1Cl` (stereo not drawn) [Compound 5, methyl 4-(2-chlorophenyl)-5-(ethoxycarbonyl)-2-methyl-6-({2-[4-(2-oxo(6-hydroquinolyloxy))butanoylamino]ethoxy}methyl)-1,4-dihydropyridine-3-carboxylate], for which the “inotropic effect (muscle contractility)” value in data set [3] (cumulative concentrations, stimulated at 1.0 Hz) was “positive inotropic effect (increase in muscle contractility) in a dose-dependent manner”. In addition, in data set [3] (guinea pig papillary muscle), the “maximum increase in contractility compared with milrinone” value is recorded as “less than the maximum increase produced by milrinone”. The same compound showed a negative logarithm of the IC50 (pIC50) in data set [1] of 6.52.

The compound `COC(=O)C1=C(C)NC(COCCNC(=O)COc2ccc3[nH]c(=O)ccc3c2)=C(C(=O)OC)C1c1ccccc1Cl` (stereo not drawn) [Compound 12, methyl 4-(2-chlorophenyl)-5-(methoxycarbonyl)-2-methyl-6-({2-[2-(2-oxo(6-hydroquinolyloxy))acetylamino]ethoxy}methyl)-1,4-dihydropyridine-3-carboxylate] had a pIC50 in data set [1] of 6.62.

In the case of `COC(=O)C1=C(C)NC(COCCNC(=O)CCCOc2ccc3[nH]c(=O)ccc3c2)=C(C(=O)OC)C1c1ccccc1[N+](=O)[O-]` (stereo not drawn) [Compound 6, methyl 5-(methoxycarbonyl)-2-methyl-4-(2-nitrophenyl)-6-({2-[4-(2-oxo(6-hydroquinolyloxy))butanoylamino]ethoxy}methyl)-1,4-dihydropyridine-3-carboxylate], in data set [1], the pIC50 is 6.57 and 6.96.

`COC(=O)C1=C(C)NC(COCCNC(=O)COc2ccc(C3=NNC(=O)CC3)cc2Cl)=C(C(=O)OC)C1c1ccccc1Cl` (stereo not drawn) [Compound 8, methyl 6-[(2-{2-[2-chloro-4-(6-oxo(1,4,5-trihydropyridazin-3-yl))phenoxy]acetylamino}ethoxy)methyl]-4-(2-chlorophenyl)-5-(methoxycarbonyl)-2-methyl-1,4-dihydropyridine-3-carboxylate] showed a negative logarithm of the IC50 (pIC50) in data set [1] of 7.10. Further, in data set [2] (% of that produced by milrinone, FIG. 2), the “contractility (dp/dt max) and ejection fraction, maximal increase relative to that produced by milrinone” value is given as 53–61%. The “ventricular relaxation (dp/dt min, Tau and isovolumic relaxation time), maximal increase relative to that produced by milrinone” value in data set [2] (% of that produced by milrinone, FIG. 3) was 63–88%. Further, the “contractility (dp/dt max) and ejection fraction” value in data set [2] (dogs in heart failure, FIG. 2) was “dose-dependent response”. In data set [2] (dogs in heart failure, FIG. 3), the “ventricular relaxation (dp/dt min, Tau and isovolumic relaxation time)” value is listed as “increased ventricular relaxation in a dose-dependent manner”. Further, in data set [2] (dogs in heart failure), the ventricular tachycardia entry was “no ventricular tachycardia”. Further, in data set [2] (systemic administration, dogs in heart failure), the “in vivo inhibition of PDE-3 and calcium channel antagonism” value was “demonstrated in vivo inhibition of PDE-3 and calcium channel antagonism”. Besides, in data set [2] (under acute conditions), the QT prolongation entry is listed as “no apparent QT prolongation”.

In the case of `CCOC(=O)C1=C(COCCNC(=O)COc2ccc(C3=NNC(=O)CC3)cc2Cl)NC(C)=C(C(=O)OC)C1c1ccccc1Cl` (stereo not drawn) [Compound 9, methyl 6-[(2-{2-[2-chloro-4-(6-oxo(1,4,5-trihydropyridazin-3-yl))phenoxy]acetylamino}ethoxy)methyl]-4-(2-chlorophenyl)-5-(ethoxycarbonyl)-2-methyl-1,4-dihydropyridine-3-carboxylate], in data set [1], the pIC50 was 7.32.

`COC(=O)C1=C(C)NC(COCCNC(=O)CCCOc2ccc3[nH]c(=O)ccc3c2)=C(C(=O)OC)C1c1ccccc1Cl` (stereo not drawn) [Compound 10, methyl 4-(2-chlorophenyl)-5-(methoxycarbonyl)-2-methyl-6-({2-[4-(2-oxo(6-hydroquinolyloxy))butanoylamino]ethoxy}methyl)-1,4-dihydropyridine-3-carboxylate]: in data set [1], the negative-log IC50 (pIC50) was 6.57. Against the preceding compound, the pIC50 is 0.75 log units lower.
